# From patent publication US11744896B2, “Compositions, use, and method for CDK2-PROTACs for cancer therapy and hearing loss” (Creighton University, priority 2020, dated 2023)
# “Also recorded” adds a separate entry of the source. Read-outs that look alike come from different tables or passages of the source.
# How the values were obtained:
# [1] = system: cisplatin-induced hearing loss; conditions: mouse; previous work; cited from earlier work
# CDK1, CDK5, CDK7 or CDK9 = assay: Abundance of closely related CDKs in HEI-OC1 cells (immunoblot); assay type: cell-based; conditions: 24 hours
# Source text: (§1) Specific bands were quantified using ImageJ (NIH).
# CDK2 [2] = molecular target: CDK2 (Mus musculus, UniProt P97377); conditions: HEI-OC1 cells; for CDK2 degradation (immunoblot): 0.1 nM to 1 μM
# Protocol: HEI-OC1 cells were maintained in DMEM with 10% of Fetal bovine serum at 33° C. in a 10% CO2 atmosphere. […] Cells were harvested in RIPA buffer (NaCl 150 mM, Tris-HCl 50 mM, Nonidet-40 1%, Sodium deoxycholate 0.5%, SDS 0.1%, pH 7.4) containing protease (Sigma-Aldrich, MO P8340) and phosphatase inhibitors (ThermoFisher, CA, A32957) for immunoblot analysis.
# Lysates were prepared after a 24 hours incubation and processed for Western blot analysis.
# Membranes were blocked for 1 hour at room temperature with 3% milk followed by overnight incubation with the primary antibody in 3% milk. After several washes and the secondary incubation for 1 hour, membranes were developed employing an iBright FL1000 (ThermoFisher, CA). Immunoblots were stripped and probed for β-actin as the loading control. Specific bands were quantified using ImageJ (NIH).
# CDK2 [3] = molecular target: T1, CDK2 (Homo sapiens, UniProt P24941); assay: CDK2 degradation in HeLa cell line (immunoblot); assay type: cell-based; conditions: HeLa cells incubated overnight, different concentrations
# T1 construct: endogenous in cells; host or cells: HeLa
# Protocol: (§2) To test the efficacy of the synthesized AZD5438-PROTACs, HeLa cells were incubated overnight with different concentrations of AZD5438-PROTAC Examples 1, 2, 5, and 6.
# neuromast hair cells = assay: Zebrafish neuromast hair cell protection from kainic acid; assay type: in vivo, zebrafish (Danio rerio); conditions: kainic acid 300 μM for 50 min after pre-treatment
# Protocol: Four days post-fertilization (dpf) zebrafish (Danio rerio) larvae were obtained by pair mating of adult TuAB fish maintained at Creighton University by standard methods approved by the Institutional Animal Care and Use Committee. Experimental fish were maintained at 28.5° C. in E3 media (5 mM NaCl, 0.17 mM KCl, 0.33 mM CaCl2 and […] MgSO4, pH 7.2) until the day of the experiment.
# (§3) The next day fish were transferred to a fresh solution of kainic acid 300 μM for 50 min, led recover in fresh E3 media for 2 hours, and fixed with 4% paraformaldehyde. Animals were processed for immunofluorescence analysis as described for the cisplatin treatments. After the 24 hours incubation with PROTAC-8 and before the incubation with the ototoxin, some fish were collected for immunoblot analysis of CDK2 abundance.
# (§4) Control animals were exposed to 0.1% DMSO in E3 media. Images were taken employing a Zeiss LSM 710 confocal microscope with a 63× oil objective.
# For the screening of the effect of PROTAC-8, neuromast hair cell counts were performed manually, employing a Zeiss AxioSkop 2 fluorescence microscope with a 40× oil objective. Confocal imaging was performed using a Zeiss LSM 710 confocal laser scanning image system with a 63× oil objective. Images were captured at room temperature with automatically set sectioning. The acquired images were processed with ZEN black edition software. […]
# CDK2 [4] = assay: CDK2 abundance in total zebrafish lysates (immunoblot); assay type: in vivo, zebrafish (Danio rerio); conditions: at concentrations of 0.1 nM and 1 μM
# Protocol: as §3, §1
# Further to find the effect of AZD5438-PROTAC 8 (Example 2) in protecting zebrafish hair cells from cisplatin otoxicity, zebrafish were pre-incubated with AZD5438-PROTAC 8 and then co-incubated with cisplatin for six hours. […] To check the degradation of CDK2 in zebrafish, fish were treated with AZD5438-PROTAC 8 in different concentration and total zebrafish lysates used for immunoblots (FIG. 12B). AZD5438-PROTAC 8 degrades CDK2 at concentrations of 0.1 nM and 1 μM (FIGS. 12B-12C).
# cochlear explants = conditions: cited from earlier work
# [5] = system: zebrafish lateral line neuromast hair cells; conditions: zebrafish lateral line neuromasts, background statement, cited from earlier work
# [6] = system: zebrafish lateral line neuromast hair cells; assay: Zebrafish neuromast hair cell protection from cisplatin; assay type: in vivo; conditions: for protection of zebrafish lateral line neuromast hair cells from cisplatin toxicity: pre-incubation, then co-incubation with cisplatin for 6 hours
# Source text: Four days post-fertilization (dpf) zebrafish (Danio rerio) larvae were obtained by pair mating of adult TuAB fish maintained at Creighton University by standard methods approved by the Institutional Animal Care and Use Committee.
# Animals were immunostained for the hair cell marker, otoferlin (HCS-1, DSHB), and process for fluorescence microscopy. Otic, middle, and opercular neuromasts were identified, and hair cells were manually counted using a Zeiss AxioSkop 2 fluorescence microscope with a 40× oil objective.
# as §4
# For the screening of the effect of PROTAC-8, neuromast hair cell counts were performed manually, employing a Zeiss AxioSkop 2 fluorescence microscope with a 40× oil objective. Confocal imaging was performed using a Zeiss LSM 710 confocal laser scanning image system with a 63× oil objective. Images were captured at room temperature with automatically set sectioning. The acquired images were processed with ZEN black edition software. Z-stack images are presented as flat Z-projections.
# CDK9 = molecular target: T2, CDK9 (Homo sapiens, UniProt P50750); assay: CDK9 degradation in HeLa cell line (immunoblot); assay type: cell-based; conditions: HeLa cells incubated overnight
# T2 construct: endogenous in cells; host or cells: HeLa
# Protocol: as §2
# CDK1 = molecular target: T3, CDK1 (Homo sapiens, UniProt P06493); assay: CDK1 degradation in HeLa cell line (immunoblot); assay type: cell-based; conditions: HeLa cells incubated overnight
# T3 construct: endogenous in cells; host or cells: HeLa
# Protocol: as §2
# T3 sequence (P06493 whole entry): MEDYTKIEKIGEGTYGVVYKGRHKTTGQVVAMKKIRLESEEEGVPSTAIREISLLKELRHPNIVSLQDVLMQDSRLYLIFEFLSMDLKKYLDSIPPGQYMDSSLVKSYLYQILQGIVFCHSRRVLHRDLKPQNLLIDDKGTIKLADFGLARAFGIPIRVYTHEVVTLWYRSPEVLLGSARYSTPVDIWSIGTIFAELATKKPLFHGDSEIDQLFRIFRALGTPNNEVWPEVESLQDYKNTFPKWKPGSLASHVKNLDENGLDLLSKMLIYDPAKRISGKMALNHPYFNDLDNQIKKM
# T2 sequence (P50750 whole entry): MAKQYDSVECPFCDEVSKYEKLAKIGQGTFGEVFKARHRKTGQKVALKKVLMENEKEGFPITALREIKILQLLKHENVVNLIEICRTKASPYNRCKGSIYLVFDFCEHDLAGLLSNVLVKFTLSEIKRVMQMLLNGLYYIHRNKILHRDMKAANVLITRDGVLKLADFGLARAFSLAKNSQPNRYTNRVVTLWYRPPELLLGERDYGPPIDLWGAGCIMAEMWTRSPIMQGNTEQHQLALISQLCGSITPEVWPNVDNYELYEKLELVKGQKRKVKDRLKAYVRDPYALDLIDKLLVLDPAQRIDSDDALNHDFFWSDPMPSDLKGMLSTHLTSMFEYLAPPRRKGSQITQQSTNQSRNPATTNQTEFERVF
Compound,protection against cisplatin-induced ototoxicity / hearing loss in vivo [1],"degradation / abundance of closely related CDKs (CDK1, CDK5, CDK7, CDK9); selectivity (CDK1, CDK5, CDK7 or CDK9)",CDK2 degradation (immunoblot) (CDK2 [2]; 24 hours),CDK2 degradation (immunoblot) (CDK2 [3]),protection of neuromast hair cells from kainic acid damage (neuromast hair cells),CDK2 degradation in zebrafish (CDK2 [4]),other results
O=C(NC1CCNCC1)c1n[nH]cc1NC(=O)c1c(Cl)cccc1Cl [AT7519],can prevent cisplatin-induced ototoxicity in vivo,–,–,–,–,–,–
"O=C1CCC(N2C(=O)c3cccc(NCCOCCOCCOCCn4cc(CO[C@H]5CC[C@H](NC(=O)c6n[nH]cc6NC(=O)c6c(F)cccc6F)CC5)nn4)c3C2=O)C(=O)N1 (some centres unmarked) [Example 3, 4-(2,6-difluorobenzamido)-N-((1r,4r)-4-((1-(2-(2-(2-(2-((2-(2,6-dioxopiperidin-3-yl)-1,3-dioxoisoindolin-4-yl)amino)ethoxy)ethoxy)ethoxy)ethyl)-1H-1,2,3-triazol-4-yl)methoxy)cyclohexyl)-1H-pyrazole-3-carboxamide]",–,nor changes in the abundance of any of the closely related CDKs,did not show any CDK2 degradation,–,–,–,–
"Cc1ncc(-c2ccnc(Nc3ccc(S(=O)(=O)CCCc4cn(CCOCCOCCOCCNc5cccc6c5C(=O)N(C5CCC(=O)NC5=O)C6=O)nn4)cc3)n2)n1C(C)C (centres unmarked) [Example 1, 2-(2,6-dioxopiperidin-3-yl)-4-((2-(2-(2-(2-(4-(3-((4-((4-(1-isopropyl-2-methyl-1H-imidazol-5-yl)pyrimidin-2-yl)amino)phenyl)sulfonyl)propyl)-1H-1,2,3-triazol-1-yl)ethoxy)ethoxy)ethoxy)ethyl)amino)isoindoline-1,3-dione]",–,nor changes in the abundance of any of the closely related CDKs,did not show any CDK2 degradation,only the treatment with AZD5438-PROTAC-8 resulted in the degradation of CDK2,–,–,–
"Cc1ncsc1-c1ccc(CNC(=O)[C@@H]2C[C@@H](O)CN2C(=O)[C@@H](NC(=O)COCCn2cc(CO[C@H]3CC[C@H](NC(=O)c4n[nH]cc4NC(=O)c4c(F)cccc4F)CC3)nn2)C(C)(C)C)cc1 [Example 4, 4-(2,6-difluorobenzamido)-N-((1S,4r)-4-((1-(2-(2-(((S)-1-((2S,4R)-4-hydroxy-2-((4-(4-methylthiazol-5-yl)benzyl)carbamoyl)pyrrolidin-1-yl)-3,3-dimethyl-1-oxobutan-2-yl)amino)-2-oxoethoxy)ethyl)-1H-1,2,3-triazol-4-yl)methoxy)cyclohexyl)-1H-pyrazole-3-carboxamide]",–,nor changes in the abundance of any of the closely related CDKs,did not show any CDK2 degradation,–,–,–,–
Cc1ncc(-c2ccnc(Nc3ccc(S(C)(=O)=O)cc3)n2)n1C(C)C [AZD5438],best protection against cisplatin-induced ototoxicity; also recorded: fully protects against cisplatin-induce hearing loss in mice by local delivery; also recorded: can prevent cisplatin-induced ototoxicity in vivo; also recorded: hair cell loss was reduced,–,–,–,able to protect the zebrafish lateral line neuromasts from cisplatin and kainic acid damage,without CDK2 degradation,"IC50 (cochlear explants; cochlear explants, cisplatin, read-out: IC50, protection against cisplatin toxicity in cochlear explants): 5 nM; protection against cisplatin-induced ototoxicity in mouse cochlear explants (cochlear explants; previous study): best protection against cisplatin-induced ototoxicity; protection of zebrafish lateral line against cisplatin ototoxicity (earlier studies) [5]: hair cell loss was reduced; protection of zebrafish lateral line against cisplatin ototoxicity (earlier studies) ([5]; listed as ACD5438): protects zebrafish lateral line against cisplatin ototoxicity; protection of zebrafish lateral line neuromast hair cells from cisplatin toxicity [6]: able to protect the zebrafish lateral line neuromasts from cisplatin and kainic acid damage"
"Cc1ncsc1-c1ccc(CNC(=O)[C@@H]2C[C@@H](O)CN2C(=O)[C@@H](NC(=O)COCCn2cc(CCCS(=O)(=O)c3ccc(Nc4nccc(-c5cnc(C)n5C(C)C)n4)cc3)nn2)C(C)(C)C)cc1 [Example 2, (2S,4R)-4-hydroxy-1-((S)-2-(2-(2-(4-(3-((4-((4-(1-isopropyl-2-methyl-1H-imidazol-5-yl)pyrimidin-2-yl)amino)phenyl)sulfonyl)propyl)-1H-1,2,3-triazol-1-yl)ethoxy)acetamido)-3,3-dimethylbutanoyl)-N-(4-(4-methylthiazol-5-yl)benzyl)pyrrolidine-2-carboxamide]",–,selective for CDK2 degradation,–,resulted in the degradation of CDK2,able to protect the zebrafish lateral line neuromasts from cisplatin and kainic acid damage,degrades CDK2,"CDK9 degradation (immunoblot) (CDK9): No significant degradation; CDK1 degradation (immunoblot) (CDK1): No significant degradation; CDK2 degradation on co-incubation with proteasome inhibitor MG-132 (CDK2 [2]; 100 nM PROTAC-8 and 300 nM MG-132, 24 hours): abolished CDK2 degradation; CDK2 degradation (CDK2 [2]; 24 hours, 100 nM concentration): around 50%; DC50 (CDK2 [2]; read-out: half maximal degradation concentration (DC50), CDK2 degradation): > 1000 nM; protection of zebrafish hair cells from cisplatin ototoxicity (FIG. 11A) ([6]; five-day post-fertilization fish, 1 hour pre-incubation, 6 hours co-incubation with cisplatin 400 μM): protects zebrafish hair cells from cisplatin otoxicity; protection of zebrafish lateral line neuromast hair cells from cisplatin toxicity ([6]; listed as AZD5438-PROTAC 8): significantly protects the zebrafish lateral line neuromasts from cisplatin toxicity; protection of zebrafish lateral line neuromast hair cells from cisplatin toxicity ([6]; listed as PROTAC-8): able to protect the zebrafish lateral line neuromasts from cisplatin and kainic acid damage; toxic effect of PROTAC alone on neuromast hair cells ([6]; zebrafish, without cisplatin (FIG. 11A)): did not show any toxic effect"
